# Source: ChEMBL document CHEMBL1201862, “PubChem BioAssay data set” (2004)
# Active and inactive are the calls of the source.
# Legend:
# [1] = molecular target: DNA dC->dU-editing enzyme APOBEC-3G (Homo sapiens, UniProt Q9HC16); assay: Dose Response confirmation of small molecule APOBEC3G DNA Deaminase Inhibitors via a fluorescence-based single-stranded DNA deaminase assay. [Related pubchem assays (depositor defined):AID493012, AID493028]; type: functional
# [2] = molecular target: DNA dC->dU-editing enzyme APOBEC-3A (Homo sapiens, UniProt P31941); assay: APOBEC3A DNA deaminase inhibitors, dose response, biochemical (AID 504722); type: functional
# [3] = molecular target: T1, Histone-lysine N-methyltransferase NSD2 (Homo sapiens, UniProt O96028); type: biochemical
# T1 sequence (O96028 whole entry): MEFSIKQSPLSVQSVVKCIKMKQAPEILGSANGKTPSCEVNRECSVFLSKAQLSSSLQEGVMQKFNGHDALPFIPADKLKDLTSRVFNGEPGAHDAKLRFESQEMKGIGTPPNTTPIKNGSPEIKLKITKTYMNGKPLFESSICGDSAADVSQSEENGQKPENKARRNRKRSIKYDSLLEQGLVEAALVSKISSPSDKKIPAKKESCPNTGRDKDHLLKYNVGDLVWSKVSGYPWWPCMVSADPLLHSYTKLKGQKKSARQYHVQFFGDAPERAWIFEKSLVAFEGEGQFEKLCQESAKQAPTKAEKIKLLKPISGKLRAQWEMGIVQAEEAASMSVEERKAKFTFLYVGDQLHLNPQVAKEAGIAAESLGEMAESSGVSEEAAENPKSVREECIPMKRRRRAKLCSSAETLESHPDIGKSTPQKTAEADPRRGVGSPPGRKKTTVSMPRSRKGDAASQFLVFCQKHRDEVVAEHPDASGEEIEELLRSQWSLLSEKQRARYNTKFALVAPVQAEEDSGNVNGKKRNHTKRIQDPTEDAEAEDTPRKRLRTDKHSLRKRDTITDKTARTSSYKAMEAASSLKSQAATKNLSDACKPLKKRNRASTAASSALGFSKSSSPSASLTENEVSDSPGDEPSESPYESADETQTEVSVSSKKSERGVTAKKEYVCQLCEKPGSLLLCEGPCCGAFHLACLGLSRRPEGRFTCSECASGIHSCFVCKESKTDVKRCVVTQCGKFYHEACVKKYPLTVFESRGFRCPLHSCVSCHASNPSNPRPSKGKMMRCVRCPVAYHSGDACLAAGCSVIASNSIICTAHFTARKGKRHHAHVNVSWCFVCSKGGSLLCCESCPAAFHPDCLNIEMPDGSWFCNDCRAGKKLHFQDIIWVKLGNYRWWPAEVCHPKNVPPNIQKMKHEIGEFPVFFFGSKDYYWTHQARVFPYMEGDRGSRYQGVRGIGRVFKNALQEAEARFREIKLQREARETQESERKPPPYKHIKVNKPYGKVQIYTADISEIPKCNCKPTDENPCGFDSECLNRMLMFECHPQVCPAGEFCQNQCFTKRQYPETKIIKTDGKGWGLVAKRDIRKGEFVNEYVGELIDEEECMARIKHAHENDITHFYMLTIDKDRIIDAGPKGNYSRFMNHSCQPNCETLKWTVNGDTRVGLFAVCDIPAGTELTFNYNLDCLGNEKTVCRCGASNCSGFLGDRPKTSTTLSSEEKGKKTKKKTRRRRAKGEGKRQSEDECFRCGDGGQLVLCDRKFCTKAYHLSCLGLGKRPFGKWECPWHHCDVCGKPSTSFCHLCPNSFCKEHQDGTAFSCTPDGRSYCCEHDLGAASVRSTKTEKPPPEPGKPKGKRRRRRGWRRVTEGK
# [4] = molecular target: Caspase-6 (Homo sapiens, UniProt P55212); assay: human caspase-6 inhibitors, dose response, biochemical, VEID-R110 fluorescence, cherry-pick (AID 720632)
# [5] = tested on: HeLa; assay: HeLa cell cytotoxicity, dose response, cytotoxicity control, 24 h, cherry-picked samples (AID 504726); type: functional, cell-based; settings: Homo sapiens;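 note: potency for cytotoxicity as loss of luminescence signal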
# [6] = molecular target: G-protein coupled receptor 35 (Homo sapiens, UniProt Q9HC97); assay: GPR35 antagonists blocking zaprinast-driven arrestin recruitment, primary screen, imaging, U2OS, beta-arrestin-GFP, zaprinast agonist (AID 2058); type: functional;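 note: antagonist potency meaning inhibition of agonist-induced arrestin redistribution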
# [7] = molecular target: T2, Heat shock factor protein 1 (Mus musculus, UniProt P38532); assay: inhibition of MG132-induced HSE-luciferase signal, confirmation, cell-based, NIH3T3, luminescence, dose retest (AID 2382); type: functional;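 note: NIH3T3 fibroblasts with HSF1-driven luciferase reporter stressed by proteasome inhibitor MG132; luminescence from HSF1-driven luciferase expression after 8 hours of MG132 stress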
# T2 sequence (P38532 whole entry): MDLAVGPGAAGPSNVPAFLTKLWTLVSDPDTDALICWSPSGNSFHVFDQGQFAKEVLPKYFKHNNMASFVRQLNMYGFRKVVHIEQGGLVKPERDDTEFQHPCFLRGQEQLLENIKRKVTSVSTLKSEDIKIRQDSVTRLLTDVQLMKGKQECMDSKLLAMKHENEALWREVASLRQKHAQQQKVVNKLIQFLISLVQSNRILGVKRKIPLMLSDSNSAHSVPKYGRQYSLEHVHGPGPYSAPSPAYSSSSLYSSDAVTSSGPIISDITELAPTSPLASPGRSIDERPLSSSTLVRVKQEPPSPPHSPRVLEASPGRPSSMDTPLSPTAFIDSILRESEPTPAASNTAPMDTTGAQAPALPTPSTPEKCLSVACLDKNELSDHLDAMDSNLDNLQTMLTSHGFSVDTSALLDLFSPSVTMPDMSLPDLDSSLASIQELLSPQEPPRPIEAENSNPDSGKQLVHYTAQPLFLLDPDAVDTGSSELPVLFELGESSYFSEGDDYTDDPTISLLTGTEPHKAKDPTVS
# [8] = Luminescence Cell-Based Dose Retest to Confirm Inhibitors of Cancer Stem Cells. [Related pubchem assays (depositor defined):AID2717, AID2721]; type: functional; settings: Homo sapiens
# [9] = tested on: Streptococcus; assay: Group A Streptococcus viability loss, dose response, counter-screen for streptokinase expression inhibitor project, luminescence, BacTiterGlo (AID 1915); type: functional, organism-based;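 note: potency for reduction of bacterial viability or growth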
# [10] = tested on: Streptococcus sp. 'group A'; assay: growth inhibition of control SK(-) GAS strain, dose response, counter-screen for streptokinase expression inhibitor project, luminescence, kanamycin, BacTiterGlo, confirmation (AID 1900); type: functional, organism-based
# DNA dC->dU-editing enzyme APOBEC-3G, sequence (Q9HC16 whole entry): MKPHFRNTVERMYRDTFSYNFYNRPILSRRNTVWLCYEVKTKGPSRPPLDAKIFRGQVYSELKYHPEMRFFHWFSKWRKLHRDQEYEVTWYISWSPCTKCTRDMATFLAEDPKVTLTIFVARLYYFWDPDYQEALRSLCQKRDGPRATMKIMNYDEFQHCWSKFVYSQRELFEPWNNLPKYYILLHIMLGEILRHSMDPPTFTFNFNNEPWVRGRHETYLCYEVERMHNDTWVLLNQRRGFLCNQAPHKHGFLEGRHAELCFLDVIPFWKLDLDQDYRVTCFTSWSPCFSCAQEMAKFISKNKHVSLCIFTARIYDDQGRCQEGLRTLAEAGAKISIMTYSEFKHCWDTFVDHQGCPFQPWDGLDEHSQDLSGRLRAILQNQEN
# DNA dC->dU-editing enzyme APOBEC-3A, sequence (P31941 whole entry): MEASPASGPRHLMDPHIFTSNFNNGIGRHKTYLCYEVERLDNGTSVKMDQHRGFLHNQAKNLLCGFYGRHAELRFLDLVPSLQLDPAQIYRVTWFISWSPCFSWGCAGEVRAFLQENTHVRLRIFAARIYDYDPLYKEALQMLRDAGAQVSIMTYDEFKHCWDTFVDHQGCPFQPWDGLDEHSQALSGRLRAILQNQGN
# Caspase-6, sequence (P55212 24-179 limits assumed): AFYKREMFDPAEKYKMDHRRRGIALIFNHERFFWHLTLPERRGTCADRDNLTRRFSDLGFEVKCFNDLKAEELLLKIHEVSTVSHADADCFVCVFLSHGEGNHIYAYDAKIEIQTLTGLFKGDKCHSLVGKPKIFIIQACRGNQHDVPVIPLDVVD
# Caspase-6, sequence (P55212 194-293 limits assumed): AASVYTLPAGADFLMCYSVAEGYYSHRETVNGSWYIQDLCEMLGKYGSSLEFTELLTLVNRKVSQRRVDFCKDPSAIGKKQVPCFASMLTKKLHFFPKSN
# G-protein coupled receptor 35, sequence (Q9HC97 whole entry): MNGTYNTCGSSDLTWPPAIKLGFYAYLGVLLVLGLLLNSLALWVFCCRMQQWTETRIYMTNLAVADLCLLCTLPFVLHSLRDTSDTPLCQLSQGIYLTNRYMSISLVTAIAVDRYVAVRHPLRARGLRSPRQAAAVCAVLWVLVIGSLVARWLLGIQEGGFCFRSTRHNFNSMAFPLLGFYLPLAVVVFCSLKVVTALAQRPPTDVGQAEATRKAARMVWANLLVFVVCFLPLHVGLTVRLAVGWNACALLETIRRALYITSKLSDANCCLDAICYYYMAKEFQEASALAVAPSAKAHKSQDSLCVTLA
compound,measurement,setting,value
C=CCn1c(-c2cccc(Cl)c2)n[nH]c1=S,IC50,[1],6.21 µM (active)
same,IC50,[2],> 100 µM (inactive)
CCN(C(=O)COC(=O)c1ccc([N+](=O)[O-])o1)C1CCCCC1,AC50,[3],> 20 µM (inactive)
same,AC50,[4],34.1 µM (active)
same,AC50,[5],> 350 µM (inactive)
CC12CCC(C/C1=N\NC1=NC(=O)/C(=C\c3ccc(Cl)cc3)S1)C2(C)C (configuration not stated),IC50,[6],13.9 µM (inactive)
same,EC50,[7],1.2 µM (active)
same,AC50,[8],2.16 µM (active)
same,EC50,[9],2.34 µM (active)
same,EC50,[10],1.18 µM (active)
COc1cccc(/C=N/n2c(S)nnc2-c2[nH]nc3c2CCC3)c1OC,IC50,[1],3.45 µM (active)
same,IC50,[2],> 100 µM (inactive)
